Data taken from ChEMBL document CHEMBL1201862, “PubChem BioAssay data set” (2004).
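Where inhibition never reached the appropriate level, the endpoint shown equals the highest concentration tested. Otherwise, values were interpolated linearly from a five-concentration, 48-hour dose response in 96-well plates. At the GI50, growth is halved.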 The source made the active and inactive calls. Rule as the data show it: active = GI50 up to about 1.1 µM and inactive = higher.

Tests used:
Test in all cases: NCI tumour cell line growth inhibition, 48 h
ACHN = system: ACHN
CAKI-1 = system: CAKI-1
CCRF-CEM = system: CCRF-CEM
COLO 205 = system: COLO 205
DLD-1 = system: DLD-1
DMS-114 = system: DMS-114
DMS-273 = system: DMS-273
EKVX = system: EKVX
HCC 2998 = system: HCC 2998
HCT-116 = system: HCT-116
HCT-15 = system: HCT-15
HL-60 = system: HL-60
HOP-62 = system: HOP-62
HOP-92 = system: HOP-92
HT-29 = system: HT-29
IGROV-1 = system: IGROV-1
K562 = system: K562
KM-20L2 = system: KM-20L2
KM12 = system: KM12
LOX IMVI = system: LOX IMVI
M14 = system: M14
M19-MEL = system: M19-MEL
MOLT-4 = system: MOLT-4
Malme-3M = system: Malme-3M
NCI-H226 = system: NCI-H226
NCI-H23 = system: NCI-H23
NCI-H460 = system: NCI-H460
NCI-H522 = system: NCI-H522
OVCAR-3 = system: OVCAR-3
OVCAR-4 = system: OVCAR-4
OVCAR-5 = system: OVCAR-5
OVCAR-8 = system: OVCAR-8
RPMI-8226 = system: RPMI-8226
RXF 393 = system: RXF 393
SF-268 = system: SF-268
SF-295 = system: SF-295
SK-MEL-28 = system: SK-MEL-28
SK-MEL-2 = system: SK-MEL-2
SK-MEL-5 = system: SK-MEL-5
SK-OV-3 = system: SK-OV-3
SN12C = system: SN12C
SNB-75 = system: SNB-75
SR = system: SR
SW-620 = system: SW-620
TK-10 = system: TK-10
U-251 = system: U-251
UACC-257 = system: UACC-257
UACC-62 = system: UACC-62
UO-31 = system: UO-31
786-0 = system: 786-0
A498 = system: A498
A549 = system: A549
HOP-18 = system: HOP-18
LXFL 529 = system: LXFL 529
SF-539 = system: SF-539
SNB-19 = system: SNB-19
SNB-78 = system: SNB-78

Measured: GI50

O=C1CN2C(Cl)(Cl)C2(c2ccccc2)c2cc(Cl)ccc2N1CC(F)(F)F (stereo unspecified)
inactive: ACHN 33.7 µM | CAKI-1 49.3 µM | CCRF-CEM 18.7 µM | COLO 205 19.5 µM | DLD-1 16.4 µM | DMS-114 27.2 µM | DMS-273 24.8 µM | EKVX 32.2 µM | HCC 2998 16.6 µM | HCT-116 21.6 µM | HL-60 > 10 µM | HOP-62 22.6 µM | HOP-92 13.6 µM | HT-29 18.4 µM | IGROV-1 26.8 µM | K562 27.8 µM | KM-20L2 32.5 µM | KM12 19.6 µM | LOX IMVI 17.5 µM | M14 24 µM | M19-MEL 38.3 µM | MOLT-4 19.1 µM | Malme-3M 22.7 µM | NCI-H226 26.2 µM | NCI-H23 26.2 µM | NCI-H460 16.1 µM | NCI-H522 17.4 µM | OVCAR-3 18.8 µM | OVCAR-4 18.5 µM | OVCAR-5 56.1 µM | OVCAR-8 33.4 µM | RPMI-8226 32.4 µM | RXF 393 21.9 µM | SF-268 38.4 µM | SF-295 18.5 µM | SK-MEL-28 22.6 µM | SK-MEL-2 24 µM | SK-MEL-5 17.9 µM | SK-OV-3 51.2 µM | SN12C 16.9 µM | SNB-75 13 µM | SR 28.9 µM | SW-620 39.4 µM | TK-10 50.2 µM | U-251 18.8 µM | UACC-257 19.6 µM | UACC-62 56.1 µM | UO-31 36.3 µM
25.8 µM: HCT-15

N/C(=C\c1ccc(OCc2ccccc2)c(OCc2ccccc2)c1[N+](=O)[O-])C(=O)O
inactive: 786-0 > 100 µM | A498 > 100 µM | A549 > 100 µM | ACHN > 100 µM | CCRF-CEM > 100 µM | COLO 205 > 100 µM | DLD-1 > 100 µM | DMS-273 > 100 µM | EKVX > 100 µM | HCC 2998 > 100 µM | HCT-116 > 100 µM | HL-60 > 100 µM | HOP-18 > 100 µM | HOP-62 > 100 µM | HOP-92 > 100 µM | HT-29 > 100 µM | IGROV-1 > 100 µM | K562 > 100 µM | KM-20L2 > 100 µM | KM12 > 100 µM | LOX IMVI > 100 µM | LXFL 529 > 100 µM | M14 > 100 µM | M19-MEL > 100 µM | MOLT-4 > 100 µM | Malme-3M > 100 µM | NCI-H226 > 100 µM | NCI-H23 > 100 µM | NCI-H522 > 100 µM | OVCAR-3 > 100 µM | OVCAR-5 > 100 µM | OVCAR-8 > 100 µM | RPMI-8226 > 100 µM | RXF 393 > 100 µM | SF-268 > 100 µM | SF-295 > 100 µM | SF-539 > 100 µM | SK-MEL-28 > 100 µM | SK-MEL-2 > 100 µM | SK-MEL-5 > 100 µM | SK-OV-3 > 100 µM | SN12C > 100 µM | SNB-19 > 100 µM | SNB-75 > 100 µM | SNB-78 > 100 µM | SR > 100 µM | SW-620 > 100 µM | TK-10 > 100 µM | U-251 > 100 µM | UACC-257 > 100 µM | UACC-62 > 100 µM | UO-31 > 100 µM
